Tests used:
Test in all cases: relative viability (nuclei count vs DMSO), 5 days (fraction); higher = more cells survive
LCLC-103H = test system: LCLC-103H
Outline: (§1)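 Relative viability divides the nuclei count in treated wells by that in vehicle wells. Lung cancer cell lines were seeded in 1536-well plates, dosed by pin tool the next day, and fixed and stained after 5 days in one step with final 0.05% Triton X-100, 1% formaldehyde and 1 ug/ml Hoechst. Dosing was a single drug or a fixed anchor-drug dose plus five library-drug doses (not always all listed) in √10 steps, and values are medians of duplicate plates imaged at 4×.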

LXF-289 = test system: LXF-289
Outline: as §1

NCI-H1355 = test system: NCI-H1355
Outline: as §1

NCI-H1563 = test system: NCI-H1563
Outline: as §1

NCI-H1651 = test system: NCI-H1651
Outline: as §1

NCI-H1755 = test system: NCI-H1755
Outline: as §1

NCI-H1792 = test system: NCI-H1792
Outline: as §1

NCI-H1915 = test system: NCI-H1915
Outline: as §1

NCI-H2347 = test system: NCI-H2347
Outline: as §1

NCI-H3122 = test system: NCI-H3122
Outline: as §1

NCI-H322M = test system: NCI-H322M
Outline: as §1

NCI-H441 = test system: NCI-H441
Outline: as §1

NCI-H460 = test system: NCI-H460
Outline: as §1

NCI-H520 = test system: NCI-H520
Outline: as §1

NCI-H522 = test system: NCI-H522
Outline: as §1

NCI-H596 = test system: NCI-H596
Outline: as §1

NCI-H661 = test system: NCI-H661
Outline: as §1

NCI-H727 = test system: NCI-H727
Outline: as §1

PC-14 = test system: PC-14
Outline: as §1

RERF-LC-KJ = test system: RERF-LC-KJ
Outline: as §1

SK-MES-1 = test system: SK-MES-1
Outline: as §1

SW 900 = test system: SW 900
Outline: as §1

COc1cc2nccc(Oc3ccc(NC(=O)Nc4cc(C)on4)c(Cl)c3)c2cc1OC [Tivozanib] + COc1cccc2cc(-c3nc([C@H]4CC[C@H](C(=O)O)CC4)n4ncnc(N)c34)[nH]c12 [OSI-027] (partner 0.5 µM)
relative viability (LCLC-103H; first compound 0.005 µM): 0.475 | relative viability (LCLC-103H; first compound 0.01581 µM): 0.481 | relative viability (LCLC-103H; first compound 0.05 µM): 0.423 | relative viability (LCLC-103H; first compound 0.1581 µM): 0.369 | relative viability (LCLC-103H; first compound 0.5 µM): 0.498 | relative viability (LXF-289; first compound 0.005 µM): 0.812 | relative viability (LXF-289; first compound 0.01581 µM): 0.786 | relative viability (LXF-289; first compound 0.05 µM): 0.845 | relative viability (LXF-289; first compound 0.1581 µM): 0.638 | relative viability (LXF-289; first compound 0.5 µM): 0.618 | relative viability (NCI-H1355; first compound 0.005 µM): 0.419 | relative viability (NCI-H1355; first compound 0.01581 µM): 0.48 | relative viability (NCI-H1355; first compound 0.05 µM): 0.475 | relative viability (NCI-H1355; first compound 0.1581 µM): 0.273 | relative viability (NCI-H1355; first compound 0.5 µM): 0.343 | relative viability (NCI-H1563; first compound 0.005 µM): 0.751 | relative viability (NCI-H1563; first compound 0.01581 µM): 0.773 | relative viability (NCI-H1563; first compound 0.05 µM): 0.784 | relative viability (NCI-H1563; first compound 0.1581 µM): 0.718 | relative viability (NCI-H1563; first compound 0.5 µM): 0.817 | relative viability (NCI-H1651; first compound 0.005 µM): 0.759 | relative viability (NCI-H1651; first compound 0.01581 µM): 0.721 | relative viability (NCI-H1651; first compound 0.05 µM): 0.737 | relative viability (NCI-H1651; first compound 0.1581 µM): 0.497 | relative viability (NCI-H1651; first compound 0.5 µM): 0.67 | relative viability (NCI-H1755; first compound 0.005 µM): 0.685 | relative viability (NCI-H1755; first compound 0.01581 µM): 0.77 | relative viability (NCI-H1755; first compound 0.05 µM): 0.733 | relative viability (NCI-H1755; first compound 0.1581 µM): 0.646 | relative viability (NCI-H1755; first compound 0.5 µM): 0.612 | relative viability (NCI-H1792; first compound 0.005 µM): 0.665 | relative viability (NCI-H1792; first compound 0.01581 µM): 0.633 | relative viability (NCI-H1792; first compound 0.05 µM): 0.68 | relative viability (NCI-H1792; first compound 0.1581 µM): 0.728 | relative viability (NCI-H1792; first compound 0.5 µM): 0.746 | relative viability (NCI-H1915; first compound 0.005 µM): 0.594 | relative viability (NCI-H1915; first compound 0.01581 µM): 0.604 | relative viability (NCI-H1915; first compound 0.05 µM): 0.653 | relative viability (NCI-H1915; first compound 0.1581 µM): 0.523 | relative viability (NCI-H1915; first compound 0.5 µM): 0.49 | relative viability (NCI-H2347; first compound 0.01581 µM): 0.373 | relative viability (NCI-H2347; first compound 0.05 µM): 0.262 | relative viability (NCI-H2347; first compound 0.5 µM): 0.408 | relative viability (NCI-H3122; first compound 0.005 µM): 0.971 | relative viability (NCI-H3122; first compound 0.01581 µM): 0.98 | relative viability (NCI-H3122; first compound 0.05 µM): 1.05 | relative viability (NCI-H3122; first compound 0.1581 µM): 0.859 | relative viability (NCI-H3122; first compound 0.5 µM): 0.925 | relative viability (NCI-H322M; first compound 0.005 µM): 0.513 | relative viability (NCI-H322M; first compound 0.01581 µM): 0.603 | relative viability (NCI-H322M; first compound 0.05 µM): 0.545 | relative viability (NCI-H322M; first compound 0.1581 µM): 0.455 | relative viability (NCI-H322M; first compound 0.5 µM): 0.461 | relative viability (NCI-H441; first compound 0.005 µM): 0.453 | relative viability (NCI-H441; first compound 0.01581 µM): 0.506 | relative viability (NCI-H441; first compound 0.05 µM): 0.78 | relative viability (NCI-H441; first compound 0.1581 µM): 0.563 | relative viability (NCI-H441; first compound 0.5 µM): 0.344 | relative viability (NCI-H460; first compound 0.005 µM): 0.626 | relative viability (NCI-H460; first compound 0.01581 µM): 0.692 | relative viability (NCI-H460; first compound 0.05 µM): 0.727 | relative viability (NCI-H460; first compound 0.1581 µM): 0.622 | relative viability (NCI-H460; first compound 0.5 µM): 0.578 | relative viability (NCI-H520; first compound 0.005 µM): 0.244 | relative viability (NCI-H520; first compound 0.01581 µM): 0.249 | relative viability (NCI-H520; first compound 0.05 µM): 0.267 | relative viability (NCI-H520; first compound 0.1581 µM): 0.167 | relative viability (NCI-H520; first compound 0.5 µM): 0.313 | relative viability (NCI-H522; first compound 0.005 µM): 0.722 | relative viability (NCI-H522; first compound 0.01581 µM): 0.788 | relative viability (NCI-H522; first compound 0.05 µM): 0.783 | relative viability (NCI-H522; first compound 0.1581 µM): 0.677 | relative viability (NCI-H522; first compound 0.5 µM): 0.604 | relative viability (NCI-H596; first compound 0.005 µM): 0.681 | relative viability (NCI-H596; first compound 0.01581 µM): 0.596 | relative viability (NCI-H596; first compound 0.05 µM): 0.866 | relative viability (NCI-H596; first compound 0.5 µM): 0.59 | relative viability (NCI-H661; first compound 0.005 µM): 0.672 | relative viability (NCI-H661; first compound 0.01581 µM): 0.73 | relative viability (NCI-H661; first compound 0.05 µM): 0.724 | relative viability (NCI-H661; first compound 0.1581 µM): 0.646 | relative viability (NCI-H661; first compound 0.5 µM): 0.688 | relative viability (NCI-H727; first compound 0.005 µM): 0.501 | relative viability (NCI-H727; first compound 0.01581 µM): 0.799 | relative viability (NCI-H727; first compound 0.05 µM): 0.688 | relative viability (NCI-H727; first compound 0.1581 µM): 0.434 | relative viability (NCI-H727; first compound 0.5 µM): 0.68 | relative viability (PC-14; first compound 0.005 µM): 0.695 | relative viability (PC-14; first compound 0.01581 µM): 0.928 | relative viability (PC-14; first compound 0.05 µM): 0.83 | relative viability (PC-14; first compound 0.1581 µM): 0.664 | relative viability (PC-14; first compound 0.5 µM): 0.664 | relative viability (RERF-LC-KJ; first compound 0.005 µM): 0.458 | relative viability (RERF-LC-KJ; first compound 0.01581 µM): 0.62 | relative viability (RERF-LC-KJ; first compound 0.05 µM): 0.657 | relative viability (RERF-LC-KJ; first compound 0.1581 µM): 0.415 | relative viability (RERF-LC-KJ; first compound 0.5 µM): 0.59 | relative viability (SK-MES-1; first compound 0.005 µM): 0.515 | relative viability (SK-MES-1; first compound 0.01581 µM): 0.573 | relative viability (SK-MES-1; first compound 0.05 µM): 0.7 | relative viability (SK-MES-1; first compound 0.1581 µM): 0.515 | relative viability (SK-MES-1; first compound 0.5 µM): 0.583 | relative viability (SW 900; first compound 0.005 µM): 0.556 | relative viability (SW 900; first compound 0.01581 µM): 0.501 | relative viability (SW 900; first compound 0.05 µM): 0.641 | relative viability (SW 900; first compound 0.1581 µM): 0.301 | relative viability (SW 900; first compound 0.5 µM): 0.518
